# Source: patent publication US20260092085A1, “SYNTHETIC TRIPLEX PEPTIDE NUCLEIC ACID-BASED INHIBITORS FOR CANCER THERAPY” (University of Connecticut, priority 2022, published 2026)
# Tested on: SUDHL-2 cells
# Test: Cell viability by trypan blue assay, SUDHL-2
# Format: cell-based
# Experimental: Cell viability was performed using trypan blue-based assay (n=3 technical triplicate), data represented as mean±(SEM), * represents the statistical analysis were performed relative to Scr-γtcPNA-155 and ♦ represent analysis performed relative to PNA-155. *p<0.05, **p<0.01, ***p<0.001 and ****p<0.0001, ♦p<0.05, ♦♦p<0.01, unpaired two-tailed t-test was used for statistical analysis. The experiment was repeated three times and in triplicate.
# Cell viability was performed using trypan blue-based assay (n=3), data represented as mean±standard error mean (SEM), *p<0.05, **p<0.01. Unpaired two-tailed t-test was used for statistical analysis.
# Cell viability was performed using trypan blue-based assay (n=3), data represented as mean±standard error mean (SEM).
# Cell viability by trypan blue assay: Diffused large B cell lymphoma (DLBCL) cell lines like SUDHL-2 (ATCC® CRL-2956™) and SUDHL-5 (ATCC® CRL-2958™) cells were purchased from ATCC (Virginia, USA). The cells were regularly tested for Mycoplasma contamination using MycoAlert™ Mycoplasma detection kit (Lonza). All the cells used in the experiment were passaged less than 8 times. 10,000 U2932, SUDHL-5, or SUDHL-2 cells were plated in a 96 well plate. The cells were treated with different doses (500 nM, 1000 nM, 2000 nM and 4000 nM) of PNA-155, gamma tcPNA-155 or Scr-γtcPNA-155 for 48 hrs in an incubator (37° C. and 5% CO2). The dead cells were marked with trypan blue. Further counting was performed using an automated cell counter (Bio-rad).
substance,measurement,setting,value
"γtcPNA-155: serine gamma tail-clamp anti-miR-155 PNA, RR-TJJJJ-OOO-ACCCCTATCACGATTAGCATTAA-RR, SEQ ID NO: 3 (all peptide nucleic acid (PNA); serine gamma PNA, tail-clamp TJJJJ via linkers, Arg-Arg at both ends)",reduction in cell viability at 500 nM,"SUDHL-2, 500 nM, compared to PNA-155 treated group",significant reduction in cell viability
same,decrease in cell viability,"SUDHL-2, 4UM, 48 hours",~80%
